Data: US8062678B2, “Extractive of Piper laetispicum C.DC., its process and its uses” (priority 2004, dated 2011)

Experiments:
mouse [1] = test: Anti-anxiety effect, mouse four board test; assay type: in vivo; details: 1 mg/kg/d; 30 minutes after drug; within 10 minutes; x ± s, n = 8
Procedure: The mice are randomized into groups, and are respectively given test drugs based on Table 10, namely Drug A (Sample 1-1 in Case of Implementation 1), B (Sample 10 in Case of Implementation 1), C (Sample 7 in Case of Implementation 1), F (Sample 9 in Case of Implementation 1) and G (Sample 11 in Case of Implementation 1), and normal saline is used as control, and positive control group is diazepam. The mouse is placed on the boards 30 minutes after the drug is administered, and is made to explore for 15 seconds. After that, whenever the mouse moves from one board to another board, one electric shock is given with amperage at 0.35 mA and duration time at 0.5 s. The mouse should present an obvious escape response because of this, and usually moves across 2 boards or 3 boards, if the mouse continues to run, no electric shock is given for […] thereafter.

mouse [2] = test: Analgesic effect, writhing test; assay type: in vivo; details: 50 mg/kg; benzoquinone i.p. 30 minutes after drug; within 10 minutes; x ± s, n = 10
Procedure: A chemical stimulant with definite solvents and at a definite concentration is injected into the abdominal cavity of the mouse to stimulate splanchnoderm and peritoneum parietale so as to cause deep, large-area and long-time inflammatory pain and result in behavioral reactions in the mouse such as concaving the abdomen, extending the trunk and back limbs and raising the buttocks, which are called the writhing response. […]
The mice are randomized into groups, and are respectively given test drugs based on Table 12, namely Drug A (Sample 1-1 in Case of Implementation 1), C (Sample 7 in Case of Implementation 1) and B (Sample 10 in Case of Implementation 1), and normal saline is used as control at the same time, and positive control group is acetyl salicylic acid. The mice are respectively injected intraperitoneally with 0.20 ml of 0.02% benzoquinone water solution 30 minutes later, and are immediately placed into a box with four sides sealed, and, beginning from the first occurrence of writhing responses in the mice, time is kept for 10 minutes, and the number of writhing responses in the mice is recorded within 10 minutes thereafter, and the results are as shown in Table 12.

[3] = tested on: rat brain synaptosome (re)uptake of dopamine (3H-DA); test: Inhibition of brain synaptosome uptake of dopamine; assay type: biochemical; details: positive control drug 1 mM; 3H-DA 300 nM, 37° C.; lower CPM = more inhibition
Description: The physiological mechanism for the […] and dopaminergic functions is similar to that for 5-hydroxytryptamine. Clinically, there are many antidepressant drugs that can block the reuptake of noradrenaline and/or 5-hydroxytryptamine and/or dopamine.
First of all, the method of Whittaker et al (Whittaker V P & Barker L A. The subcellular tractionation of brain tissue with special reference to the preparation of synaptosomes and their component organelles. In: Fried R. ed. In Methods in Neurochemistry, Vol. New York: Marcel Dakker, Inc, 1972) is referred to for preparing brain synaptosome, and the specific procedures are: decapitate the rat and take out the cerebrum quickly, place it in precooled normal saline, and remove cerebral pia mater and vascular tissues. Take cerebral cortex, and place it in cold sugar solution. Use ultrasonic cell disruptor for producing homogenate and centrifuging to obtain refined brain synaptosome for future use. […]

MAO-A in mouse brain = target: T1, MAO-A in mouse brain (Mus musculus, UniProt Q64133); test: Inhibition of monoamine oxidase A in the brains of mice; assay type: in vivo; details: 25 mg/kg; mouse brain after 14 days; x ± SD, n = 10
T1 construct: from tissue; host or cells: mouse brain
T1 sequence (Q64133 1-526): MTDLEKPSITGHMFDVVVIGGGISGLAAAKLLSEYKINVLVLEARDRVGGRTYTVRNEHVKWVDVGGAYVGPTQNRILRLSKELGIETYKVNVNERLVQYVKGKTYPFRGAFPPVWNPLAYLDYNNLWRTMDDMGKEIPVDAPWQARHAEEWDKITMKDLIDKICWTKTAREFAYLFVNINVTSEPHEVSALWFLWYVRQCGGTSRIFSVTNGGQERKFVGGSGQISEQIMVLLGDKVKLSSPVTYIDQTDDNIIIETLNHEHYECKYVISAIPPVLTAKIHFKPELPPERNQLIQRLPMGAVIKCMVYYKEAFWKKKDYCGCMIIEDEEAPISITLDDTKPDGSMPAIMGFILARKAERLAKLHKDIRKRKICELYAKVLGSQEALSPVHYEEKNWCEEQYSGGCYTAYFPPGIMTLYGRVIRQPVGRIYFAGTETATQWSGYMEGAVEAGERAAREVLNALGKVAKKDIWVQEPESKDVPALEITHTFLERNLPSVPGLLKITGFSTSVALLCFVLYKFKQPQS
Description: (§1) The biological function of monoamine oxidase (MAO) lies in its adjustment of the level for in vivo endogenous amines (noradrenaline, dopamine and 5-hydroxytryptamine) and exogenous amine substances. Based on its substrate and its inhibitor specificity, monoamine oxidase can be divided into two types (MAO-A and MAO-B). Dopamine and tyramine are two MAO substrates, 5-HT and noradrenaline are Type A substrates, while β-phenethylamine and benzylamine are Type B substrates, and iprazid and tranylcypromine are nonselective inhibitors for MAO.
(§2) The mice are randomized into groups, and based on Table 6, intragastric administration of the corresponding doses of test Drug A (Sample 1-1 in Case of Implementation 1) is performed for each of the groups, which are administered once a day consecutively for 14 days, and normal saline is used as a control at the same time, and the positive control is paxil. One (1) hour after the last administration, the animals are put to death through neck dislocation, and the brain is immediately taken for testing MAO activity.

MAO-B in mouse brain = target: T2, MAO-B in mouse brain (Mus musculus, UniProt Q8BW75); test: Inhibition of monoamine oxidase B in the brains of mice; assay type: in vivo; details: 25 mg/kg; mouse brain after 14 days; x ± SD, n = 10
T2 construct: from tissue; host or cells: mouse brain
T2 sequence (Q8BW75 1-520): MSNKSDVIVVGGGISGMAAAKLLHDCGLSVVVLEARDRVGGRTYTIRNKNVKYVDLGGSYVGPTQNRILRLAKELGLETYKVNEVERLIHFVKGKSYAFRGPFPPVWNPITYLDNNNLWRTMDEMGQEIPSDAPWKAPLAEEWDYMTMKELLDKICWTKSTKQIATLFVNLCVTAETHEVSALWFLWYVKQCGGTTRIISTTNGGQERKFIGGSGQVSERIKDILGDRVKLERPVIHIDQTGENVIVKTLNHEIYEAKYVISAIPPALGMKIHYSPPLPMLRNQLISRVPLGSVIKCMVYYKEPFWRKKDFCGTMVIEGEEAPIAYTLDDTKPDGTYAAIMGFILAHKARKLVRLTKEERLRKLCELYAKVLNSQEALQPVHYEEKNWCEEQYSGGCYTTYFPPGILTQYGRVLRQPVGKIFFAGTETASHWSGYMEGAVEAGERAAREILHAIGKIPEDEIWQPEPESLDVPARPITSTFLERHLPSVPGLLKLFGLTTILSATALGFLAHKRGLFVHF
Description: as §1, §2

mouse [4] = test: Mouse swimming test; assay type: in vivo; details: 30 mg/kg/d intragastric, 14 days, within 4 minutes, x ± s, n = 10
Procedure: The despair test as put forth by Porsolt et al can serve as the evaluation model for the effects of antidepressant drugs. In this model, a mouse or a rat is placed in a limited and inescapable space for swimming, and the animal can be induced to have motionless status. Such status is a reflection of the animal's despair, and the status can be inhibited by some effective antidepressant drugs.
One (1) hour after the drug is administered on Day 14, the animal is placed into a 10×20 cm glass cylinder with water depth at 8˜10 cm and water temperature at 22˜24° C. Beginning from the 2nd minute, the accumulated time of motionless status within 4 minutes is recorded, and the results are as shown in Table 7.

rat = test: Rat swimming test; assay type: in vivo; details: 30 mg/kg/d intragastric, 14 days, 5 minutes swimming, x ± s, n = 10
Procedure: After having fasted for 4 hours, the rats are placed in a 40×18 cm glass cylinder with water depth at 15 cm (water temperature at 25° C.) for swimming for 15 minutes, and are dried with a hot blower. Then, based on Table 8, the rats are randomized into 6 groups, and each of the groups receives intragastric administration of the corresponding dose of Drug A (Sample 1-1 in Case of Implementation 1) and B (Sample 10 in Case of Implementation 1), which is administered once a day consecutively for 14 days, and normal saline is used as control at the same time, and positive control is Venlafaxine. One (1) hour after the drug is administered for the last time, the rat swimming test begins, the swimming time is 5 minutes, and the motionless time during the 5 minutes for which they are swimming is recorded, and the results are as shown in Table 8.

mouse [5] = test: Mouse tail suspension test; assay type: in vivo; details: 50 mg/kg/d intragastric, 14 days, within 6 minutes, x ± s, n = 10
Description: The tail suspension test is a simple and easy experimental method introduced by Stern et al in 1985 for evaluation of antidepressant drugs. […] Clinically effective antidepressant drugs can reduce the motionless time of the mouse after it cannot successfully escape through its efforts following being suspended at the tail.
The mice are randomized into groups, and each of the groups receives intragastric administration of the corresponding dose of Drag A (Sample 1-1 in Case of Implementation 1), B (Sample 10 in Case of Implementation 1), C (Sample 7 in Case of Implementation 1), D (Sample 3 in Case of Implementation 1) and E (Sample 5 in Case of Implementation 1), which is administered once a day consecutively for 14 days, and normal saline is used as control at the same time, and positive control is Venlafaxine. One (1) hour after the drug is administered for the last time, the mouse tail suspension test is performed, the duration is 6 minutes, and the stationary and motionless time within the 6 minutes is recorded, and the results are as shown in Table 9.

[6] = tested on: rat brain synaptosome (re)uptake of noradrenaline (3H-NA); test: Inhibition of brain synaptosome uptake of noradrenaline; assay type: biochemical; details: positive control drug 0.1 mM; 3H-NA 300 nM, 37° C.; lower CPM = more inhibition
Procedure: 10 μl of substrate (^3H-5HT, ^3H-NA or ^3H-DA; final reaction concentration: 300 nM) is added in a 4° C. environment and is thoroughly mixed, and the tubes are placed in a 37° C. water bath for a warm bath for 5 minutes. After that, precooled Tris-Krebs buffer is added into each tube to terminate reaction, and the multichannel cell harvestor is immediately used for sucking filtration through fiberglass filter membrane, and the same solution in the same volume is used to wash tubes and filter. The filter membrane is removed and oven dried. The filter membrane is placed in the scintillation vial, methylbenzene scintillation fluid is added, and counting is performed with the β-liquid scintillation counter.

CN1C(=O)CN=C(c2ccccc2)c2cc(Cl)ccc21 [diazepam]
Accumulated Number of Electric Shocks (mouse [1]): 12.78 ± 2.05

CC(=O)Oc1ccccc1C(=O)O [acetyl salicylic acid]
Accumulated Number of Writhing Responses (mouse [2]): 9.89 ± 1.09

Fc1ccc([C@@H]2CCNC[C@H]2COc2ccc3c(c2)OCO3)cc1 [Paxil]
Inhibition of Monoamine Uptake (CPM) Dopamine [3]: 1197 CPM
MAO-A (OD) (MAO-A in mouse brain): 0.012 ± 0.005 OD
MAO-B (OD) (MAO-B in mouse brain): 0.025 ± 0.008 OD

CNCCC(Oc1ccc(C(F)(F)F)cc1)c1ccccc1 (stereo not drawn) [Fluoxetine]
Accumulated Motionless Time (mouse [4]): 73.7 ± 17.2 s

COc1ccc(C(CN(C)C)C2(O)CCCCC2)cc1 (stereo not drawn) [Venlafaxine]
Accumulated Motionless Time (rat): 211.2 ± 24.7 s
Accumulated Motionless Time (mouse [5]): 57.5 ± 43.0 s

CNCCCN1c2ccccc2CCc2ccccc21 [Desipramine]
Inhibition of Monoamine Uptake (CPM) Noradrenaline [6]: 1499 CPM
